Results taken from US20260373165A1, “PHARMACEUTICAL COMBINATIONS AND COMPOSITIONS, AND METHODS OF USE THEREOF” (SHENZHEN HIGHTIDE BIOPHARMACEUTICAL LTD., priority 2022, published 2026).

Legend:
Assay type in all cases: in vivo, mouse (C57BL/6J male, 60% HFD DIO)
[1] = Example 2: body fat mass by MRI on day 23
Excerpt: (§1) After 5-6-week-old C57BL/6J male mice were acclimatized for 1 week, the weight of each mouse was weighed, and the mice were randomly divided into a control group and a model group by taking the weight as a main index, where 12 mice in the control group were fed with common feed (CD), and the mice in the remaining model group were fed with 60% high-fat feed (60% HFD) for 10-12 weeks to construct a DIO obesity model, with the average body weight being not less than 40 g. The mice fed with 60% HFD were grabbed and acclimatized with a solvent for 3 days, where the acclimatization with a solvent was performed by oral gavage of 0.5% CMC-Na, once daily.
(§2) The food intake, the body weight, the body fat ratio, and the insulin level of the mice were respectively measured, followed by fasting blood glucose level, and the mice were randomly grouped according to Table 12 by taking the body weight as an index, and the remaining ungrouped mice were euthanized. After grouping, each group of mice was administered according to Table 12, the day of administration was defined as DO, and the administration volume of each drug was determined based on the results obtained by the calculation of 5 μL/g× mouse body weight (g).
(§3) For the combined administration group, the administration sequence and the administration time were kept consistent at each administration. The mice were continuously fed with high-fat feed during the administration period until the administration was finished. During administration, 1 food intake was measured per week (difference in feed weights at an interval of 24 h was measured); each group of mice was weighed once daily; blood was collected from the tail tip on day 16 and day 30, respectively, so as to measure fasting blood glucose levels once (blood was collected after fasting from 9:00 am to 3:[…]); on day 24 of administration (D23), the body fat ratio and the lean mass of each group of mice were measured by MRI (the measurement period was kept consistent with that before grouping); after 25 days of administration intervention (day 24), each group of mice was fasted for 6 h and subjected to OGTT (0 min, 15 min, 30 min, 60 min, 90 min, 120 min) to detect their blood glucose levels; after 29 days of administration intervention (day 28), each group of mice was fasted for 6 h and subjected to OGTT (0 min, 15 min, 30 min, 60 min, 90 min, 120 min), and meanwhile subjected to blood sampling via submaxillary vein (0 min, 15 min, 30 min, about 30 μL of blood sampled each time), and then the blood plasma was separated for detecting the insulin level by ELISA, where the separated blood plasma was more than 10 μL; the next day (D30) at the end of administration was set as the test endpoint, and the mice were fasted for 6 h in the morning and subjected to fasting blood glucose level measurement; subsequently, the mice were euthanized with CO2, blood was collected from the heart of each mouse for analysis, and each group of mice was dissected; the liver and subcutaneous, epididymal and mesenteric fat was collected, photographed and weighed, respectively.
The body weight, the body fat mass and the body fat ratio of each animal in groups G1 to G8 were measured on day 23 and averaged for each group, and the results are shown in Table 15 below, and FIGS. 21 and 22.

[2] = Example 2: lean mass by MRI on day 23
Excerpt: as §1, §2, §3
The body weight, the lean mass and the lean ratio of each animal in groups G1 to G8 were measured on day 23 and averaged for each group, and the results are shown in Table 16 below, and FIGS. 23 and 24.

[3] = Example 2: body weight and body weight change rate, combined administration of HTD1801 and dapagliflozin or empagliflozin in DIO obesity model; conditions: for Body weight (mean) / Body weight change rate: HTD1801 250 mpk, dapagliflozin 10 mpk, empagliflozin 15 mpk p.o. QD, semaglutide 10 nmol/kg s.c. Q3D
Excerpt: as §1, §2, §3

[4] = mean, day 23, HTD1801 250 mpk, dapagliflozin 10 mpk, empagliflozin 15 mpk p.o. QD

CCOc1ccc(Cc2cc([C@@H]3O[C@H](CO)[C@@H](O)[C@H](O)[C@H]3O)ccc2Cl)cc1 [Dapagliflozin, dapagliflozin]
increase of body fat relative to control group G2 ([1]; day 23): about 8.6% | body fat mass and body fat ratio (in words) ([1]; day 23, relative to control group G2): increased | Body weight ([1]; mean, day 23 (Table 15), HTD1801 250 mpk, dapagliflozin 10 mpk, empagliflozin 15 mpk p.o. QD): 43.8 g | Body fat ratio [1, 4]: 48.8% | Fat (body fat mass) [1, 4]: 21.4 g | lean ratio (in words) ([2]; day 23, relative to model control group G2): slightly decreased | Body weight ([2]; mean, day 23 (Table 16), HTD1801 250 mpk, dapagliflozin 10 mpk, empagliflozin 15 mpk p.o. QD): 43.8 g | Lean (lean mass) [2, 4]: 4.3 g | Lean ratio [2, 4]: 9.9% | body weight decrease ([3]; dapagliflozin 10 mpk p.o. QD): 3.4% | Body weight (mean) ([3]; day 0 (baseline)): 45.4 g | Body weight change rate ([3]; day 0 (baseline)): 0.0% | Body weight (mean) ([3]; day 1): 45.5 g | Body weight change rate ([3]; day 1): 0.3% | Body weight (mean) ([3]; day 2): 45.3 g | Body weight change rate ([3]; day 2): −0.1% | Body weight (mean) ([3]; day 3): 45.1 g | Body weight change rate ([3]; day 3): −0.6% | Body weight (mean) ([3]; day 4): 44.8 g | Body weight change rate ([3]; day 4): −1.2% | Body weight (mean) ([3]; day 5): 44.3 g | Body weight change rate ([3]; day 5): −2.4% | Body weight (mean) ([3]; day 6): 44.1 g | Body weight change rate ([3]; day 6): −2.7% | Body weight (mean) ([3]; day 7): 44.0 g | Body weight change rate ([3]; day 7): −2.9% | Body weight (mean) ([3]; day 8): 43.7 g | Body weight change rate ([3]; day 8): −3.7% | Body weight (mean) ([3]; day 9): 43.4 g | Body weight change rate ([3]; day 9): −4.4% | Body weight (mean) ([3]; day 10): 43.5 g | Body weight change rate ([3]; day 10): −4.2% | Body weight (mean) ([3]; day 11): 43.2 g | Body weight change rate ([3]; day 11): −4.7% | Body weight (mean) ([3]; day 12): 43.1 g | Body weight change rate ([3]; day 12): −4.9% | Body weight (mean) ([3]; day 13): 42.6 g | Body weight change rate ([3]; day 13): −6.1% | Body weight (mean) ([3]; day 14): 42.7 g | Body weight change rate ([3]; day 14): −6.0% | Body weight (mean) ([3]; day 15): 42.9 g | Body weight change rate ([3]; day 15): −5.5% | Body weight (mean) ([3]; day 16): 42.8 g | Body weight change rate ([3]; day 16): −5.7% | Body weight (mean) ([3]; day 17): 43.2 g | Body weight change rate ([3]; day 17): −4.7% | Body weight (mean) ([3]; day 18): 43.3 g | Body weight change rate ([3]; day 18): −4.5% | Body weight (mean) ([3]; day 19): 43.5 g | Body weight change rate ([3]; day 19): −4.2% | Body weight (mean) ([3]; day 20): 43.5 g | Body weight change rate ([3]; day 20): −4.1% | Body weight (mean) ([3]; day 21): 43.9 g | Body weight change rate ([3]; day 21): −3.3% | Body weight (mean) ([3]; day 22): 43.9 g | Body weight change rate ([3]; day 22): −3.3% | Body weight (mean) ([3]; day 23): 43.8 g | Body weight change rate ([3]; day 23): −3.5% | Body weight (mean) ([3]; day 24): 43.5 g | Body weight change rate ([3]; day 24): −4.2% | Body weight (mean) ([3]; day 25): 43.9 g | Body weight change rate ([3]; day 25): −3.2% | Body weight (mean) ([3]; day 26): 44.2 g | Body weight change rate ([3]; day 26): −2.5% | Body weight (mean) ([3]; day 27): 44.3 g | Body weight change rate ([3]; day 27): −2.4% | Body weight (mean) ([3]; day 28): 43.9 g | Body weight change rate ([3]; day 28): −3.2% | Body weight (mean) ([3]; day 29): 43.8 g | Body weight change rate ([3]; day 29): −3.4%
